Data from US12552753B2, “Methods and compositions for targeting Tregs using CCR8 inhibitors” (Nanjing Immunophage Biomedical Co., Ltd., priority 2020, dated 2026).
Counter-ions that a name gives are not always drawn.

Target: CCR8 (Homo sapiens, UniProt P51685)
Assay: Tango assay (Tango-CCR8-Gal4-CHO-K1 cells, CCL1-stimulated, ONE-Glo luminescence)
Conditions: Tango Assay IC50, Inhibition of CCR8 Tango cell in vitro
Experimental: The Tango cell line was used to monitor antagonists-mediated receptor inactivation.
Tango cells (Tango-CCR8-Gal4-CHO-K1 cells constructed by Genomeditech) were passaged in complete medium (F12K, 10% FBS, 1% penicillin-streptomycin, 4 μg/ml puromycin, 4 μg/ml blasticidin and 100 μg/ml hygromycin) in incubator (37° C., 5% CO2).
Twenty-four hours before the seed, cells were cultured in 10 or 15 cm dish at a density of 30% confluence in culture medium (F12K, 10% FBS, 1% penicillin-streptomycin).
Cells were suspended in starving medium (F12K, 1% FBS, 1% penicillin-streptomycin) before being seeded into black/clear 96 wells (1×10^4 cells/70 μl/well) and incubated for 6 hours (37° C., 5% CO2). Different concentration of compound, dissolved in DMSO, was into the 96-well plates, with 50 μl in each well, and incubation continued for 1 hour at 37° C.
After the incubation, the medium was removed and the 96-well plate was put in −80° C. freezer for an hour or longer. The plate and the ONE-Glo reagent (Promega, Catalog Number: E6110) which was frozen in −80° C., were taken out and rewarmed to room temperature. The ONE-Glo working reagent was prepared by mixing ONE-Glo reagent with F12K (no FBS) (1:2), and 40 μl ONE-Glo working reagent was added into each well. After incubating for 10 minutes at room temperature, the plate was read using microplate luminescence reader at 560 nm.
The microplate reader records luminescence in relative luminescence units (RLU).

Chain of CCR8 (P51685 whole entry, the tested form may be a part): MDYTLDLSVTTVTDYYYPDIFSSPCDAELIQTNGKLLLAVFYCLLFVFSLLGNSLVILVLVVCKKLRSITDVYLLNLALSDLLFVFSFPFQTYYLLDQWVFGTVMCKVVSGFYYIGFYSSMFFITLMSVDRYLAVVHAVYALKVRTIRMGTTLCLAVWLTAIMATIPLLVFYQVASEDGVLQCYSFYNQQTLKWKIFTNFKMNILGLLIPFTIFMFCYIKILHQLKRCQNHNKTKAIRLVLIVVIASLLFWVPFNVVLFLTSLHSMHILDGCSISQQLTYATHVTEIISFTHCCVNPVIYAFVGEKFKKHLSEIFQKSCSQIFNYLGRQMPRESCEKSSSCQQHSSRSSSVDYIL

| Structure (SMILES) | IC50 [µM] |
| --- | --- |
| Cc1ccccc1C(=O)Nc1ccc(S(=O)(=O)Nc2ccc3c(c2)N(CCN(C)C)CC3)c2ccccc12 [Compound 33, N-(4-(N-(1-(2-(dimethylamino)ethyl)indolin-6-yl)sulfamoyl)naphthalen-1-yl)-2-methylbenzamide] | > 10 |
| Cc1ccccc1C(=O)Nc1ccc(S(=O)(=O)NCc2ccccc2)c2ccccc12 [Compound 281, N-(4-(N-benzylsulfamoyl)naphthalen-1-yl)-2-methylbenzamide] | > 100 |
| Cc1ccccc1C(=O)Nc1ccc(S(=O)(=O)NC(C)CC2CCCCC2)c2ccccc12 (centres unmarked) [Compound 75, N-(4-(N-(1-cyclohexylpropan-2-yl)sulfamoyl)naphthalen-1-yl)-2-methylbenzamide] | 0.0076 |
| Cc1cc(S(=O)(=O)N[C@H](C)C2CCNCC2)ccc1NC(=O)c1ccccc1 [Compound 166A, (R)-N-(2-methyl-4-(N-(1-(piperidin-4-yl)ethyl)sulfamoyl)phen-yl)benzamide hydrochloride] | 0.099 |
| Cc1ccccc1C(=O)Nc1ncc(S(=O)(=O)N[C@H](C)C2CCNCC2)cc1C [Compound 199A, (R)-2-methyl-N-(3-methyl-5-(N-(1-(piperidin-4-yl)ethyl)sulfamoyl)pyridin-2-yl)benzamide hydrochloride] | 0.438 |
| Cc1ccccc1C(=O)Nc1ccc(S(=O)(=O)NC(C)C2CCCN(C(=O)CN)C2)c2ccccc12 (single isomer, unassigned) [Compound 156B, N-(4-(N-(1-(1-(2-aminoacetyl)piperidin-3-yl)ethyl)sulfamoyl)naph-thalen-1-yl)-2-methylbenzamide] | > 10 |
| Cc1ccccc1C(=O)Nc1cc(F)c(S(=O)(=O)N[C@H](C)C2CCNCC2)cc1Cl [Compound 242A, (R)-N-(2-chloro-5-fluoro-4-(N-(1-(piperidin-4-yl)eth-yl)sulfamoyl)phen-yl)-2-methylbenzamide hydrochloride] | 0.015 |
| Cc1ccccc1C(=O)Nc1ccc(S(=O)(=O)N[C@@H](C)C2CCCCC2)c2ccccc12 [Compound 58, (S)-N-(4-(N-(1-cyclohexylethyl)sulfamo-yl)naphthalen-1-yl)-2-methylbenzamide] | 0.012 |
| Cc1ccccc1C(=O)Nc1ccc(S(=O)(=O)N[C@H](C)C2CCN(C(=O)OC(C)(C)C)CC2)cc1C(F)(F)F [Compound 185, (R)-tert-butyl 4-(1-(4-(2-methylbenzamido)-3-(trifluoromethyl)phenyl-sulfonamido)ethyl)piper-idine-1-carboxylate] | 0.673 |
| Cc1ccccc1C(=O)Nc1ccc(S(=O)(=O)NC(C)C2CCCCN2C(=O)OC(C)(C)C)c2ccccc12 (single isomer, unassigned) [Compound 68, tert-butyl 2-(1-(4-(2-methylbenzamido)naph-thalene-1-sulfonamido)ethyl)piper-dine-1-carboxylate] | 1.76 |
| Cc1ccccc1C(=O)Nc1ccc(S(=O)(=O)NC(C)C2CCCN(C(=O)CN)C2)c2ccccc12 (single isomer, unassigned) [Compound 156C, N-(4-(N-(1-(1-(2-aminoacetyl)piperidin-3-yl)ethyl)sulfamoyl)naph-thalen-1-yl)-2-methylbenzamide] | 0.205 |
| Cc1ccccc1C(=O)Nc1ccc(S(=O)(=O)NC(C)CC2CCN(C)CC2)c2ccccc12 (centres unmarked) [Compound 214, 2-methyl-N-(4-(N-(1-(1-methylpiperidin-4-yl)propan-2-yl)sulfamoyl)naphthalen-1-yl)benzamide] | > 10 |
| Cc1cc(S(=O)(=O)N[C@H](C)C2CCN(C(=O)OC(C)(C)C)CC2)c(F)cc1NC(=O)c1ccccc1C [Compound 174, (R)-tert-butyl 4-(1-(2-fluoro-5-methyl-4-(2-methylbenzamido)phen-ylsulfonamido)ethyl)pi-peridine-1-carboxylate] | 0.914 |
| Cc1ccccc1C(=O)Nc1ccc(S(=O)(=O)NC2CCC23CCNCC3)c2ccccc12 (centres unmarked) [Compound 90, N-(4-(N-(7-azaspiro[3.5]nonan-1-yl)sulfamoyl)naphthalen-1-yl)-2-methylbenzamide] | > 10 |
| Cc1ccccc1C(=O)Nc1cc(Cl)c(S(=O)(=O)N[C@@H](C)C2CCN(C)CC2)cc1Cl [Compound 307, (S)-N-(2,5-dichloro-4-(N-(1-(1-methylpiperidin-4-yl)ethyl)sulfamoyl)phenyl)-2-methylbenzamide hydrochloride] | > 100 |
| Cc1ccccc1NC(=O)c1ccc(S(=O)(=O)N[C@H](C)C2CCNCC2)cc1C [Compound 113A, (R)-2-methyl-4-(N-(1-(piperidin-4-yl)ethyl)sulfamoyl)-N-(o-tolyl)benzamide] | 0.388 |
| CC(NS(=O)(=O)c1ccc2c(c1)C(=O)NCCC2)C1CC2CCC1CC2 (centres unmarked) [Compound 135, N-(1-(bicyclo[2.2.2]octan-2-yl)ethyl)-1-oxo-2,3,4,5-tetrahydro-1H-benzo[c]azepine-8-sulfonamide] | > 10 |
| Cc1ccccc1C(=O)Nc1ccc(S(=O)(=O)N[C@H](C)C2CCNCC2)cc1C(C)C [Compound 197A, (R)-N-(2-isopropyl-4-(N-(1-(piperidin-4-yl)ethyl)sulfamoyl)phenyl)-2-methylbenzamide hydrochloride] | 0.115 |
| Cc1ccccc1C(=O)Nc1cc(F)c(S(=O)(=O)N[C@@H](C)C2CCN(C)CC2)cc1Cl [Compound 263A, (S)-N-(2-chloro-5-fluoro-4-(N-(1-(1-methylpiperidin-4-yl)ethyl)sulfamoyl)phenyl)-2-methylbenzamide hydrochloride] | 0.282 |
| Cc1ccccc1C(=O)Nc1ccc(S(=O)(=O)NC(C)C(C)(C)C)c2ccccc12 (centres unmarked) [Compound 82, N-(4-(N-(3,3-dimethylbutan-2-yl)sulfamoyl)naphthalen-1-yl)-2-methylbenzamide] | 0.033 |
| Cc1ccccc1C(=O)Nc1ccc(S(=O)(=O)NC(C)C2CCCN(C(=O)CN)C2)c2ccccc12 (single isomer, unassigned) [Compound 156D, N-(4-(N-(1-(1-(2-aminoacetyl)piperidin-3-yl)ethyl)sulfamoyl)naph-thalen-1-yl)-2-methylbenzamide] | > 10 |
| Cc1ccccc1C(=O)Nc1cc(C)c(S(=O)(=O)N[C@H](C)C2CCN(C)CC2)cc1Cl [Compound 267A, (R)-N-(2-chloro-5-methyl-4-(N-(1-(1-methylpiperidin-4-yl)ethyl)sulfamoyl)phenyl)-2-methylbenzamide hydrochloride] | 0.002 |
| O=S(=O)(NC1CCCCC1)c1ccc(-c2nc3ccccc3[nH]2)cc1 [Compound 108, 4-(1H-benzo[d]imidazol-2-yl)-N-cyclohexylbenzenesulfon-amide] | > 10 |
| Cc1cc(S(=O)(=O)NC(c2ccccc2)C2CCNCC2)ccc1NC(=O)c1ccccc1C (centres unmarked) [Compound 227A, 2-methyl-N-(2-methyl-4-(N-(phenyl(piperidin-4-yl)methyl)sulfamoyl)phenyl)benzamide] | > 100 |
| Cc1cc(S(=O)(=O)NC(C)C(C)(C)CO)ccc1NC(=O)c1ccccc1C (centres unmarked) [Compound 233, 3-((4-(N-(4-hydroxy-3,3-dimethylbutan-2-yl)sulfamoyl)-2-methylphenyl)carbamoyl)-2-methylbenzene-1-ylium] | 0.886 |

Same assay, conditions: read-out: Tango Assay IC50, Inhibition of CCR8 Tango cell in vitro

| Structure (SMILES) | IC50 [µM] |
| --- | --- |
| Cc1ccccc1C(=O)Nc1c(C)cc(S(=O)(=O)N[C@H](C)C2CCN(C)CC2)cc1Cl [Compound 220, (R)-N-(2-chloro-6-methyl-4-(N-(1-(1-methylpiperidin-4-yl)ethyl)sulfamoyl)phenyl)-2-methylbenzamide] | 0.001 |
